pIC50: −log10 of the molar value. Where only a bound is given, the exact number is not on record here.

The test system of this experiment is Plasmodium berghei. As to the kind of experiment: Luciferase/luciferin-expressing antifolate-resistant parasites were used to infect a culture of HepG2 cells that were pre-incubated with compounds. Infected hepatocytes emit light due to the luciferase reaction. Assay results are presented as the percent inhibition of light emission compared to control. […]. The class given is functional. The conditions noted are these: sporozoite; for IC90: read-out: LUCIFERASE INFECTION ASSAY - IC90.

One may read the pIC50 as the IC50 on a negative log10 scale, so that one unit is a factor of ten. The IC90 is the concentration at which the effect reaches the 90% level. Turning to `CC1CCCCC1Nc1ncnc2sccc12` (stereo not given), the IC90 is greater than 10 µM. Also, the pIC50 (HEPG2TOX_HILL_SLOPE 0.142, HEPG2TOX_R_SQUARED 0.36, PBLUC_HILL_SLOPE 4.81, PBLUC_R_SQUARED 0.31, read-out: LUCIFERASE INFECTION ASSAY - IC50) was 5.01.
For the compound `Cc1cnc(C(=O)OCC(=O)N(CC(C)C)C2CCS(=O)(=O)C2)cn1` (stereo not given), the IC90 is greater than 10 µM. Under “HEPG2TOX_HILL_SLOPE 0.131, HEPG2TOX_R_SQUARED 0.272, PBLUC_HILL_SLOPE 1.29, PBLUC_R_SQUARED 0.0136, read-out: LUCIFERASE INFECTION ASSAY - IC50”, the pIC50 was less than 5.00.
Consider `CCN(c1ccccc1)S(=O)(=O)c1ccc(C(=O)NC2CCCCC2)cc1`, for which the 90% effect concentration (IC90) was greater than 10 µM. Further, the negative logarithm of the IC50 (pIC50) (HEPG2TOX_HILL_SLOPE 0.154, HEPG2TOX_R_SQUARED 0.656, read-out: LUCIFERASE INFECTION ASSAY - IC50) was less than 5.00.
In the case of `O=C(CCC(=O)N1CCC(C(O)(c2ccccc2)c2ccccc2)CC1)c1cccs1`, the IC90 turned out to be 3.65 µM. Where the note is “HEPG2TOX_HILL_SLOPE 0.15, HEPG2TOX_R_SQUARED 0.513, PBLUC_HILL_SLOPE 4.19, PBLUC_R_SQUARED 0.279, read-out: LUCIFERASE INFECTION ASSAY - IC50”, the pIC50 was 5.67.
For `Cc1ccc(-c2csc3[nH]c(=S)n(Cc4ccccc4)c(=O)c23)cc1`, the IC90 was greater than 10 µM. Further, where the note is “HEPG2TOX_HILL_SLOPE 0.131, HEPG2TOX_R_SQUARED 0.154, PBLUC_HILL_SLOPE 0.317, PBLUC_R_SQUARED 0.176, read-out: LUCIFERASE INFECTION ASSAY - IC50”, the pIC50 was 5.12.
Consider `O=C(CSc1nnc(-c2ccncc2)[nH]1)N1N=C(c2cccs2)CC1c1cccs1` (stereo not given), for which the IC90 was greater than 10 µM. The pIC50 (HEPG2TOX_HILL_SLOPE 0.148, HEPG2TOX_R_SQUARED 0.0376, read-out: LUCIFERASE INFECTION ASSAY - IC50) is less than 5.00.
For the compound `CC(C)[C@H](NC(=O)c1ccc(Cl)cc1)C(=O)OCC(=O)NCCc1ccc(S(N)(=O)=O)cc1`, the IC90 was greater than 10 µM. The negative-log IC50 (pIC50) (HEPG2TOX_HILL_SLOPE 0.118, HEPG2TOX_R_SQUARED 0.186, PBLUC_HILL_SLOPE 0.264, PBLUC_R_SQUARED 0.0178, read-out: LUCIFERASE INFECTION ASSAY - IC50) was less than 5.00.
As to `CNc1snc(C)c1C(=O)N(C)Cc1ccc(OC(F)(F)F)cc1`, the 90% effect concentration (IC90) was 2.72 µM. Moreover, the pIC50 (HEPG2TOX_HILL_SLOPE 0.114, HEPG2TOX_R_SQUARED 0.0245, PBLUC_HILL_SLOPE 2.54, PBLUC_R_SQUARED 0.592, read-out: LUCIFERASE INFECTION ASSAY - IC50) was 5.94.
Turning to `Fc1ccc(-c2cnc3cnc(-c4cccs4)cn23)cc1Cl`, the IC90 is greater than 10 µM. The negative-log IC50 (pIC50) (HEPG2TOX_HILL_SLOPE 0.129, HEPG2TOX_R_SQUARED 0.552, PBLUC_HILL_SLOPE 2.11, PBLUC_R_SQUARED 0.543, read-out: LUCIFERASE INFECTION ASSAY - IC50) was 5.34.
Regarding `Cc1nc(CCNC(=O)Cc2cn(-c3ccccc3)nc2-c2ccc(Cl)cc2)cs1`, the IC90 was greater than 10 µM. In addition, the pIC50 (HEPG2TOX_HILL_SLOPE 0.133, HEPG2TOX_R_SQUARED 0.316, PBLUC_HILL_SLOPE 7.24, PBLUC_R_SQUARED 0.0479, read-out: LUCIFERASE INFECTION ASSAY - IC50) is 5.06.
For `Cc1cc(C)c(NC(=O)CN(C)C2CC(=O)N(C)C2=O)c(C)c1` (stereo not given), the IC90 is greater than 10 µM. For the same compound, the pIC50 (HEPG2TOX_HILL_SLOPE 0.116, HEPG2TOX_R_SQUARED 0.0867, read-out: LUCIFERASE INFECTION ASSAY - IC50) was less than 5.00.
Turning to `CC(C)(C)c1nc(-c2ccc(N)cc2)no1`, the IC90 was found to be 9.21 µM. Besides, the pIC50 (HEPG2TOX_HILL_SLOPE 0.127, HEPG2TOX_R_SQUARED 0.315, PBLUC_HILL_SLOPE 1.58, PBLUC_R_SQUARED 0.494, read-out: LUCIFERASE INFECTION ASSAY - IC50) was 5.64.
Regarding `OCc1ccc(-c2cn3c(-c4ccccc4)cnc3cn2)cc1`, the IC90 is greater than 11 µM. Further, where the note is “HEPG2TOX_HILL_SLOPE 0.117, HEPG2TOX_R_SQUARED 0.27, read-out: LUCIFERASE INFECTION ASSAY - IC50”, the pIC50 is less than 4.96.
Consider `CC(C)(CNC(=O)c1ccc(F)cc1)SCc1ccc(F)cc1`, for which the IC90 was greater than 9.84 µM. Also, the pIC50 (HEPG2TOX_HILL_SLOPE 0.147, HEPG2TOX_R_SQUARED 0.538, PBLUC_HILL_SLOPE 1.03, PBLUC_R_SQUARED 0.662, read-out: LUCIFERASE INFECTION ASSAY - IC50) is 5.45.
`Cc1ccc(S(=O)(=O)Oc2c(C(C)C)cc(Nc3cc(C)ccc3C)cc2C(C)C)cc1`: the IC90 is greater than 10 µM. Moreover, under “HEPG2TOX_HILL_SLOPE 0.156, HEPG2TOX_R_SQUARED 0.126, PBLUC_HILL_SLOPE 13.1, PBLUC_R_SQUARED 0.436, read-out: LUCIFERASE INFECTION ASSAY - IC50”, the pIC50 was 5.05.
Regarding `Cc1cccc(Nc2ccccc2C(=O)Oc2ccc(Cl)cc2Cc2ccccc2)c1C`, the IC90 was greater than 10 µM. Also, the pIC50 (HEPG2TOX_HILL_SLOPE 0.105, HEPG2TOX_R_SQUARED 0.052, read-out: LUCIFERASE INFECTION ASSAY - IC50) is less than 5.00.
Regarding `CC1CCN(Cc2csc(NC(=O)c3ccc4ncsc4c3)n2)CC1`, the IC90 is greater than 10 µM. For the same compound, the pIC50 (HEPG2TOX_HILL_SLOPE 0.129, HEPG2TOX_R_SQUARED 0.115, read-out: LUCIFERASE INFECTION ASSAY - IC50) was less than 5.00.
Consider `CC(C)CN1CCC1(C(=O)NCc1cccc2ccccc12)c1ccccc1` (stereo not given), for which the IC90 was greater than 8.86 µM. For the same compound, the pIC50 (HEPG2TOX_HILL_SLOPE 0.125, HEPG2TOX_R_SQUARED 0.379, PBLUC_HILL_SLOPE 1.82, PBLUC_R_SQUARED 0.397, read-out: LUCIFERASE INFECTION ASSAY - IC50) is 5.25.
Turning to `NC(=O)c1cccc(-c2cn3c(-c4ccccc4)cnc3cn2)c1`, the IC90 was greater than 10.5 µM. Moreover, the negative logarithm of the IC50 (pIC50) (HEPG2TOX_HILL_SLOPE 0.15, HEPG2TOX_R_SQUARED 0.654, PBLUC_HILL_SLOPE 0.762, PBLUC_R_SQUARED 0.254, read-out: LUCIFERASE INFECTION ASSAY - IC50) was less than 4.98.
Consider `O=C(/C=C/c1ccccc1)N1CCN(S(=O)(=O)c2ccccc2C(F)(F)F)CC1`, for which the IC90 stood at 6.57 µM. Further, where the note is “HEPG2TOX_HILL_SLOPE 0.114, HEPG2TOX_R_SQUARED 0.819, PBLUC_HILL_SLOPE 7.50, 16.5, PBLUC_R_SQUARED 0.237, 0.462, read-out: LUCIFERASE INFECTION ASSAY - IC50”, the pIC50 is 5.26.
Take `O=C(CN1C(=O)S/C(=C\c2ccco2)C1=O)c1ccc([N+](=O)[O-])cc1`: the IC90 is greater than 10 µM. Moreover, under “HEPG2TOX_HILL_SLOPE 0.122, HEPG2TOX_R_SQUARED 0.0589, read-out: LUCIFERASE INFECTION ASSAY - IC50”, the pIC50 was less than 5.00.
Turning to `Cc1cc(S(=O)(=O)c2ccc(OC(=O)CC3CCCC3)c(C)c2)ccc1OC(=O)CC1CCCC1`, the IC90 is greater than 10 µM. Further, the pIC50 (HEPG2TOX_HILL_SLOPE 0.0998, HEPG2TOX_R_SQUARED 0.18, PBLUC_HILL_SLOPE 0.103, PBLUC_R_SQUARED 0.0204, read-out: LUCIFERASE INFECTION ASSAY - IC50) is less than 5.00.
Regarding `O=C1CC(c2c(F)cccc2Cl)CC2=Nc3ccccc3NC(c3ccc(Cl)cc3)C12` (stereo not given), the IC90 was greater than 7.28 µM. The pIC50 (HEPG2TOX_HILL_SLOPE 0.118, HEPG2TOX_R_SQUARED 0.0386, read-out: LUCIFERASE INFECTION ASSAY - IC50) is less than 5.14.
For the compound `N#Cc1c(SCC(=O)c2ccccc2)nc2c(c1-c1ccccc1)CCCC2`, the IC90 was determined as 6.39 µM. In addition, the pIC50 (HEPG2TOX_HILL_SLOPE 0.131, HEPG2TOX_R_SQUARED 0.0459, PBLUC_HILL_SLOPE 1.72, PBLUC_R_SQUARED 0.594, read-out: LUCIFERASE INFECTION ASSAY - IC50) is 5.75.
On to `Cc1ccc(Cn2ncc3c(C(=O)N4CCN(c5ncccn5)CC4)cc(C)nc32)cc1`, for which the IC90 is greater than 10 µM. The pIC50 (HEPG2TOX_HILL_SLOPE 0.12, HEPG2TOX_R_SQUARED 0.204, PBLUC_HILL_SLOPE 1.61, PBLUC_R_SQUARED 0.516, read-out: LUCIFERASE INFECTION ASSAY - IC50) was 5.08.
Consider `Cc1ccc(C)c(NC(=O)C(OC(=O)c2c3c(nc4ccccc24)CCN(C)C3)c2ccccc2)c1` (stereo not given), for which the IC90 was greater than 10 µM. In addition, the pIC50 (HEPG2TOX_HILL_SLOPE 0.135, HEPG2TOX_R_SQUARED 0.194, read-out: LUCIFERASE INFECTION ASSAY - IC50) was less than 5.00.
In the case of `O=C(CCC1CCCC1)N1CCC(c2nnc3n2CCC3)CC1`, the IC90 is greater than 10 µM. The pIC50 (HEPG2TOX_HILL_SLOPE 0.129, HEPG2TOX_R_SQUARED 0.379, read-out: LUCIFERASE INFECTION ASSAY - IC50) was less than 5.00.
On to `CCCCNS(=O)(=O)c1ccc2nc(SCC3CCCO3)[nH]c2c1` (stereo not given), for which the IC90 was greater than 10 µM. Besides, the pIC50 (HEPG2TOX_HILL_SLOPE 0.14, HEPG2TOX_R_SQUARED 0.119, PBLUC_HILL_SLOPE 2.38, PBLUC_R_SQUARED 0.33, read-out: LUCIFERASE INFECTION ASSAY - IC50) was 5.01.
In the case of `COc1ccccc1-c1ccc2ncc(-c3cccnc3)n2n1`, the IC90 is 4.41 µM. For the setting “HEPG2TOX_HILL_SLOPE 0.11, HEPG2TOX_R_SQUARED 0.0747, PBLUC_HILL_SLOPE 11.9, PBLUC_R_SQUARED 0.526, read-out: LUCIFERASE INFECTION ASSAY - IC50”, the pIC50 is 5.44.
Regarding `Cc1nc(NCc2ccc(Cl)cc2)c2cc(-c3ccccc3)sc2n1`, the IC90 is greater than 10 µM. Also, for the setting “HEPG2TOX_HILL_SLOPE 0.0996, HEPG2TOX_R_SQUARED 0.0438, PBLUC_HILL_SLOPE 16.2, PBLUC_R_SQUARED 0.0193, read-out: LUCIFERASE INFECTION ASSAY - IC50”, the pIC50 was 5.03.

(Values after ChEMBL document CHEMBL4483862, “Open-source discovery of chemical leads for next-generation chemoprotective antimalarials” (2018).)
